Results from publication PMC8253220, “Molecular design, synthesis and in vitro biological evaluation of thienopyrimidine–hydroxamic acids as chimeric kinase HDAC inhibitors: a challenging approach to combat cancer” (Journal of Enzyme Inhibition and Medicinal Chemistry, 2021).

What was measured:
[1] = target: VEGFR-2 (Homo sapiens, UniProt P35968); assay: In vitro VEGFR-2 tyrosine kinase inhibitory assay (Z'-LYTE, SelectScreen); assay type: biochemical; settings: 10 µM single dose
Procedure: The target compounds were evaluated for their in vitro inhibitory activities against EGFR, VEGFR-2, and HDAC6. The EGFR and VEGFR-2 inhibitory assays were performed at Thermo Fischer Scientific, Madison, WI, USA (SelectScreenServices@thermofisher.com). The HDAC inhibitory assays were performed at BPS Bioscience, San Diego, CA, USA (www.bpsbioscience.com). Initially, all of the synthesised target compounds were evaluated for their percent inhibitory activity against EGFR, VEGFR-2, and HDACs at 10 µM single dose concentration, in which their mean percent inhibition is summarised in (Figure 5, Tables 1 and [2]). Representative compounds were evaluated for their percent inhibitory activity against EGFR and VEGFR-2 at 6 different concentrations (0.1 nM, 1 nM, 10 nM, 100 nM, 1 µM, 10 µM) to subsequently calculate their IC50 values (Table 3). Additionally, all of the synthesised target compounds were submitted to the National Cancer Institute “NCI” Bethesda, Maryland, USA (www.dtp.nci.nih.gov), to evaluate theirs in vitro antiproliferative activities against NCI 60- cancer cell line panel.
In vitro enzyme inhibition determination for the synthesised compounds was carried out in Thermo Fischer Scientific, Madison, WI, USA (SelectScreenServices@thermofisher.com). The EGFR and VEGFR-2 tyrosine kinase % inhibitory activity at a single-dose concentration of 10 µM was performed initially then representative compounds were evaluated at single-dose concentrations of (0.1 nM, 1 nM, 10 nM, 100 nM, 1 µM) using ZYLTE technology. A fluorescence-based, coupled-enzyme format is employed in the biochemical assay and depends on the sensitivity of proteolytic cleavage to non-phosphorylated and phosphorylated peptides. Then IC50 values for selected compounds were determined by GraphPad Prism at Misr international university.

[2] = test system: VEGFR2; settings: Figure 3; read-out: VEGFR2 IC50; cited from earlier work
[3] = test system: Hela nuclear extracts; assay: Hela nuclear extract HDAC inhibitor assay (BPS Bioscience); assay type: biochemical
Procedure: The purpose of the study is to determine the effects of twenty compounds from Misr International University on the enzymatic activities of hela nuclear extracts using an in vitro […]
7a Solution 10mM DMSO 10 10 % DMSO in
7b Solution 10mM DMSO 10 10 % DMSO in
7d Solution 10mM DMSO 10 10 % DMSO in
2.3 Experimental Conditions
2.3.1 Enzymes and Substrates
Assay Catalog # Substrate
Hela Nuclear Exctract 50053 10 µM HDAC Substrate 3
For the hela nuclear extracts, hela cells were grown to 90 % confluency. Hela nuclear extracts were prepared from the Nuclear Extraction Kit from abcam (Catalog # ab113474). The final total protein concentration was calculated to be 2.4 µg/µl. From this, the hela nuclear extracts was diluted 20-fold in HDAC assay buffer and 5 µl of the dilution was added to a 50 µl reaction.
The compounds are dissolved in DMSO. A series of dilutions of the compounds were prepared with 10% DMSO in HDAC assay buffer and 5 µl of the dilution was added to a 50 µl reaction so that the final concentration of DMSO is 1 % in all of […]
The enzymatic reactions for the hela nuclear extract were conducted in duplicate at 37 °C for 60 minutes in a 50 µl mixture containing HDAC assay buffer, 5 µg BSA, an HDAC substrate (see 2.3.1), hela nuclear extract, and a test compound (see 2.2).
After enzymatic reactions, 50μl of 2 x HDAC Developer was added to each well for the hela nuclear extract and the plate was incubated at room temperature for an additional 15 […]
Fluorescence intensity was measured at an excitation of 360 nm and an emission of 460 nm using a Tecan Infinite M1000 microplate reader.
Hela nuclear extract activity assays were performed in duplicates at each concentration.
The fluorescent intensity data were analyzed using the computer software, Graphpad Prism. In the absence of the compound, the fluorescent intensity (Ft) in each data set was defined as 100% activity. In the absence of hela nuclear extract, the fluorescent intensity (Fb) in each data set was defined as 0% activity. The percent activity in the presence of each compound was calculated according to the following equation: %activity = (F-Fb)/(Ft-Fb), where F= the fluorescent intensity in the presence of the compound.
The values of percentage activity were plotted on a bar graph.

[4] = target: T1, HDAC6 (Homo sapiens, UniProt Q9UBN7); assay: In vitro HDAC6 inhibitory assay (BPS Bioscience, fluorogenic); assay type: biochemical; settings: read-out: % Inhibition HDAC6
T1 construct: purchased BPS Bioscience 50006
T1 sequence (Q9UBN7 1-1215): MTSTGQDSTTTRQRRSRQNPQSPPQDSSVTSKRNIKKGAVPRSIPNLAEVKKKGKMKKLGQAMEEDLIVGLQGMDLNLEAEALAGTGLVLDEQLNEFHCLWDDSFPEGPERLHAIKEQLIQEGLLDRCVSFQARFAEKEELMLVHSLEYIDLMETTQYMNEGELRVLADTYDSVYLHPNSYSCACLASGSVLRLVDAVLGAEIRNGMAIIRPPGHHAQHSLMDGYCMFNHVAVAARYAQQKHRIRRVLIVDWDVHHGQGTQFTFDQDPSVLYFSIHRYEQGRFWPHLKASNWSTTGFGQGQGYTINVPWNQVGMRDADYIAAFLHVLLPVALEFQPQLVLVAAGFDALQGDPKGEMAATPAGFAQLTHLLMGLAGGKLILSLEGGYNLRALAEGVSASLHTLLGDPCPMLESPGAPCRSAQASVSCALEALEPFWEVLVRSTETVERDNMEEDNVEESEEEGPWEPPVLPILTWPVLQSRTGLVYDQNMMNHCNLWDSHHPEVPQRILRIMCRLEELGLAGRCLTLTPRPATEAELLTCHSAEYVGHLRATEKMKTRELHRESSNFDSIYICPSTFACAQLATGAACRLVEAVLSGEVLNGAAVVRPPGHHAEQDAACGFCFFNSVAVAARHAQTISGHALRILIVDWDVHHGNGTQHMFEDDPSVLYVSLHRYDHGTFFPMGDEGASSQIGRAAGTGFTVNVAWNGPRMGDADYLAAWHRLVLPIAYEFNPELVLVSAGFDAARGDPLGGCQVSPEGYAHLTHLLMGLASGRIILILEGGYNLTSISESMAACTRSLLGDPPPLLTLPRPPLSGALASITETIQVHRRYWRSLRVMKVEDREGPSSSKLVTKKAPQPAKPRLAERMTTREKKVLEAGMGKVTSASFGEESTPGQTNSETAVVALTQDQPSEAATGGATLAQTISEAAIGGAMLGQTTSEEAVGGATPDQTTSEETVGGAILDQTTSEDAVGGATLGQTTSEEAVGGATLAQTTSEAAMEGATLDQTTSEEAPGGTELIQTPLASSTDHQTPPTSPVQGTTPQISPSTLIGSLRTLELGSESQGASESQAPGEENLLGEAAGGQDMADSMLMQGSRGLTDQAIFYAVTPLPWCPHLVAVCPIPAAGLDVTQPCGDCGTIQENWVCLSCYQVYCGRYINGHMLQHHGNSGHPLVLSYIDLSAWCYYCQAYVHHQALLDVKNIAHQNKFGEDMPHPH
Procedure: (1 picture or pasted object on this page, not shown here)
HDAC activity assays were performed in duplicates at each concentration. The

Sequence of VEGFR-2 (P35968 20-1356): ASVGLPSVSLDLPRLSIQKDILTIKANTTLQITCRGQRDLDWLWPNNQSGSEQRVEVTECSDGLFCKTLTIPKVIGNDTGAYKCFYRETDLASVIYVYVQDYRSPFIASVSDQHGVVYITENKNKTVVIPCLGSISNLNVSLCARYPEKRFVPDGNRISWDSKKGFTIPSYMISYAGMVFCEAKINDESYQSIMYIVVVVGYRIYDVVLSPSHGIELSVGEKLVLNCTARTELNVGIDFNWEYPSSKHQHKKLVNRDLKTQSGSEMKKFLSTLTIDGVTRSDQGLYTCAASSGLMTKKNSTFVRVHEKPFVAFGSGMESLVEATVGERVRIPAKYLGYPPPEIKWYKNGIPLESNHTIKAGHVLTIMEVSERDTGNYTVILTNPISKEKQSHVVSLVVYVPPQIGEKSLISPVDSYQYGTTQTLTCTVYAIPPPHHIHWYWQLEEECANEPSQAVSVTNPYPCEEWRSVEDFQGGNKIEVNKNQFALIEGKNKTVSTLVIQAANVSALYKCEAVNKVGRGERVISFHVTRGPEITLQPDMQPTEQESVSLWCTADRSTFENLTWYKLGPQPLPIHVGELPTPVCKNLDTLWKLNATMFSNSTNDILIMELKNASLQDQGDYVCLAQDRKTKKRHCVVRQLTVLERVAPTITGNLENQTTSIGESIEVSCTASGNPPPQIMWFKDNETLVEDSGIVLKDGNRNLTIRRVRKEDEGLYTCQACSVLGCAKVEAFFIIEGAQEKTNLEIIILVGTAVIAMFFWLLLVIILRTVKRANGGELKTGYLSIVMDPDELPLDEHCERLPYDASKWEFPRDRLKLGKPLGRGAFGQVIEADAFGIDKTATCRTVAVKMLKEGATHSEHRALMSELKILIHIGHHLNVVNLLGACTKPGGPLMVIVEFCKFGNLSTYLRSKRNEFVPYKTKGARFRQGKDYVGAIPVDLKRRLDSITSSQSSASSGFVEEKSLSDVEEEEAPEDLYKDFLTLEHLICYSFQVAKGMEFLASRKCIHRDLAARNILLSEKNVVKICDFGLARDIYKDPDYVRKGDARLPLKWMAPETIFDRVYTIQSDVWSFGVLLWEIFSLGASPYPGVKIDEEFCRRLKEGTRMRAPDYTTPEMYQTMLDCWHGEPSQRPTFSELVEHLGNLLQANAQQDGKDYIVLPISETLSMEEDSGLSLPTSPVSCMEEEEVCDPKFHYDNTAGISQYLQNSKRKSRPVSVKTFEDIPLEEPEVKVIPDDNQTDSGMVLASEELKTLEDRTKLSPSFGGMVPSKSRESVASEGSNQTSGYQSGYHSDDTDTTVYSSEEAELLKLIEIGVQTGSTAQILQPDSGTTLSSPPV

| SMILES | melting point [°C] | other results |
| --- | --- | --- |
| CCOC(=O)c1sc2ncnc(Nc3ccc(NC(=O)Nc4ccccc4)cc3)c2c1C [Compound 6a, Ethyl 5-methyl-4–(4-(3-phenylureido)phenylamino)thieno[2,3-d]pyrimidine-6-carboxylate] | 319 to 322 | – |
| CCOC(=O)c1sc2ncnc(Nc3ccc(NC(=O)Nc4cccc(OC)c4)cc3)c2c1C [Compound 6b, Ethyl 4–(4-(3–(3-methoxyphenyl)ureido)phenylamino)-5-methylthieno[2,3-d]pyrimidine-6-carboxylate] | 220 to 222 | – |
| CCOC(=O)c1sc2ncnc(Nc3ccc(NC(=O)Nc4cccc(C(F)(F)F)c4)cc3)c2c1C [Compound 6c, Ethyl 4–(4-(3–(3-trifluromethyphenyl)ureido)phenylamino)-5-methylthieno[2,3-d]pyrimidine-6-carboxylate] | 305 to 307 | – |
| CCOC(=O)c1sc2ncnc(Nc3ccc(NC(=S)Nc4ccccc4)cc3)c2c1C [Compound 6d, Ethyl 5-methyl-4–(4-(3-phenylthioureido)phenylamino)thieno[2,3-d]pyrimidine-6-carboxylate] | 173 to 175 | – |
| CCOC(=O)CCNC(=O)c1sc2ncnc(Nc3ccc(NC(=O)Nc4cccc(OC)c4)cc3)c2c1C [Compound 9b, Ethyl 3–(4-(4–(3-(3-methoxyphenyl)ureido)phenylamino)-5-methylthieno[2,3-d]pyrimidine-6-carboxamido)propanoate] | 250 | – |
| CCOC(=O)CCNC(=O)c1sc2ncnc(Nc3ccc(NC(=O)Nc4cccc(C(F)(F)F)c4)cc3)c2c1C [Compound 9c, Ethyl 3–(5-methyl-4–(4-(3(3(trifluoromethyl)phenyl)ureido)phenylamino)thieno[2,3-d]pyrimidine-6-carboxamido)propanoate] | 220 | – |
| CCOC(=O)CCCNC(=O)c1sc2ncnc(Nc3ccc(NC(=O)Nc4ccccc4)cc3)c2c1C [Compound 10a, Ethyl 4–(5-methyl-4–(4-(3-phenylureido)phenylamino)thieno[2,3-d]pyrimidine-6-carboxamido)butanoate] | 219 to 221 | – |
| CCOC(=O)CCCNC(=O)c1sc2ncnc(Nc3ccc(NC(=O)Nc4cccc(C(F)(F)F)c4)cc3)c2c1C [Compound 10c, Ethyl 4–(5-methyl-4–(4-(3–(3(trifluoromethyl)phenyl)ureido)phenylamino)thieno[2,3-d]pyrimidine-6-carboxamido)butanoate] | 197 to 199 | – |
| CCOC(=O)c1sc2ncnc(Nc3ccc4[nH]cnc4c3)c2c1C [Compound 14a, Ethyl 4-(1H-benzo[d]imidazol-5-ylamino)-5-methylthieno[2,3-d]pyrimidine-6-carboxylate.] | 250 to 251 | – |
| CCOC(=O)c1sc2ncnc(Nc3ccccc3)c2c1C [Compound 14b, Ethyl 5-methyl-4-(phenylamino)thieno[2,3-d]pyrimidine-6-carboxylate] | 170 to 172 | – |
| CCOC(=O)c1sc2ncnc(Nc3ccc(Cl)cc3)c2c1C [Compound 14c, Ethyl 4–(4-chlorophenylamino)-5-methylthieno[2,3-d]pyrimidine-6-carboxylate] | 174 to 176 | – |
| CCOC(=O)c1sc2ncnc(Nc3ccc(F)c(Cl)c3)c2c1C [Compound 14d, Ethyl 4–(3-chloro-4-fluorophenylamino)-5-methylthieno[2,3-d]pyrimidine-6-carboxylate] | 154 to 156 | – |
| CCOC(=O)CCNC(=O)c1sc2ncnc(Nc3ccccc3)c2c1C [Compound 17b, Ethyl 3–(5-methyl-4-(phenylamino)thieno[2,3-d]pyrimidine-6-carboxamido)propanoate] | 206 | – |
| CCOC(=O)CCNC(=O)c1sc2ncnc(Nc3ccc(Cl)cc3)c2c1C [Compound 17c] | 202 | inhibition at 10 µM [1]: 87% |
| CCOC(=O)CCNC(=O)c1sc2ncnc(Nc3ccc(F)c(Cl)c3)c2c1C [Compound 17d, Ethyl 3–(4-(3-chloro-4-fluorophenylamino)-5-methylthieno[2,3-d]pyrimidine-6-carboxamido)propanoate] | 184 | – |
| CCOC(=O)CCCNC(=O)c1sc2ncnc(Nc3ccccc3)c2c1C [Compound 18b, Ethyl 4–(5-methyl-4-(phenylamino)thieno[2,3-d]pyrimidine-6-carboxamido)butanoate] | 145 to 147 | – |
| CCOC(=O)CCCNC(=O)c1sc2ncnc(Nc3ccc(Cl)cc3)c2c1C [Compound 18c, Ethyl 4–(4-(4-chlorophenylamino)-5-methylthieno[2,3-d]pyrimidine-6-carboxamido)butanoate] | 138 | – |
| CCOC(=O)CCCNC(=O)c1sc2ncnc(Nc3ccc(F)c(Cl)c3)c2c1C [Compound 18d, Ethyl 4–(4-(3-chloro-4-fluorophenylamino)-5-methylthieno[2,3-d]pyrimidine-6-carboxamido)butanoate] | 131 to 133 | – |
| Clc1ccc(Oc2ncnc3sc4c(c23)CCCCC4)cc1 [Compound D] | – | IC50 [2]: 340 nM |
| CC(C=CC(=O)NO)=CC(C)C(=O)c1ccc(N(C)C)cc1 (centres unmarked) [TSA, reference compound] | – | % Inhibition Hela Nuclear Extracts ([3]; 0.0003 µM (printed 0.0003 M)): 7%; % Inhibition Hela Nuclear Extracts ([3]; 0.003 µM (printed 0.003 M)): 46%; % Inhibition Hela Nuclear Extracts ([3]; 0.03 µM (printed 0.03 M)): 88%; inhibition at 0.0005 µM [4]: 23%; inhibition at 0.005 µM [4]: 73%; inhibition at 0.05 µM [4]: 95% |
